Reference: PubChem BioAssay AID463074 (Broad Institute, 2010)
The source made the active and inactive calls.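 How the source made its calls: active means AC50 no more than tenfold above the top dose tested, or full inhibition at every dose with a flat fit (cut at about 19 µM in these data); inconclusive means flat curve fit with inhibition between 30% and 70%, or poor fit; inactive means AC50 more than tenfold above the top dose tested.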

Tested on: HMLE_sh_eGFP viability, CellTiter-Glo luminescence, 72 h
Assay: viability loss of HMLE_sh_eGFP cells – cell-based, luminescence, counter-screen for HMLE_sh_ECad selective toxicity project, dose response (AID 463074);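 further: counterscreen control line to flag general toxicity for the HMLE_sh_ECad screen; potency for loss of viability as luminescence drops below DMSO wells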

Compound | AC50
O=C(CSCc1cccc(Cl)c1)Nc1ccccc1-c1ccccc1 | > 19.5 µM (inactive)
Cn1c(=O)n(Cc2ccc(F)cc2)c(=O)c2c1nc1n2CCCN1C1CCCCC1 | 4.43 µM
O=C(Nc1nc(-c2cccc3ccccc23)cs1)c1ccc2c(c1)S(=O)(=O)c1ccccc1C2=O | 11.3 µM
CCc1ccc2[nH]c(=O)c(C3C(C#N)=C(N)Oc4c3ccc3cccnc43)cc2c1 (stereo unspecified) | 8.92 µM
COc1ccc(C(=O)CSc2nnc(CN3CCCCC3)n2-c2ccc(Cl)cc2)cc1OC | 9.46 µM
COc1ccc(/C=C/C(=O)c2c(O)n(CCC3=CCCCC3)c(=O)[nH]c2=O)cc1 | 3.33 µM
C=C(C)COc1ccc(-c2n[nH]c(C)c2-c2ccc(OC)c(OC)c2)c(O)c1 | 2.65 µM
Cn1c(-c2ccsc2)c(-c2cccs2)c2cc(-c3ccc4[nH]ccc4c3)ccc21 | > 19.5 µM (inactive)
CCN(Cc1ccccc1)S(=O)(=O)c1ccc(C(=O)N(CCCN(C)C)c2nc3cc(C)cc(C)c3s2)cc1 | 3.75 µM
COCCCn1c(SCc2cccc(C(F)(F)F)c2)nc2cc(OC)c(OC)cc2c1=N | 4.75 µM
Cc1ccc(N2NC(=O)/C(=C\c3cc4c(cc3[N+](=O)[O-])OCO4)C2=O)cc1C | 4.44 µM
CCCCOc1ccc(S(=O)(=O)N2CCN(c3ccc(N4CCN(CC)CC4)nn3)CC2)cc1 | 0.46 µM
CSc1ccc(C2=CC(=O)C[C@H](c3ccc(Cl)cc3)C2)cc1 | 9.27 µM
CCNc1nc(Oc2c(Cl)cccc2Cl)cc(C(F)(F)F)n1 | 13.1 µM
Cc1ccc(Nc2cc(C)nc(NCc3ccccc3)n2)cc1 | 4.86 µM
O=C(NNc1ccc(-c2csnn2)cc1)c1cc(Cl)cc(Cl)c1 | 3.02 µM
CCOc1cc(/C=C\c2[nH]c(=O)[nH]c(=O)c2[N+](=O)[O-])ccc1OC(C)CC (stereo unspecified) | 8.32 µM
O=C(Nc1cccc(Cl)c1)Nc1sccc1-c1nc2ccccc2s1 | > 19.5 µM (inactive)
Cc1ccn2c(NC3CCCCC3)c(-c3cccc(SC4CCCCC4)c3)nc2c1 | 3.86 µM
FC(F)(F)c1ccc(C2[C@H]3CN(Cc4cccnc4)[C@H](c4ccccc4)C34CC2(c2cccnc2)C4)cc1 (stereo partly specified) | 3.67 µM
O=c1cc(CNc2cc(C(F)(F)F)cc(C(F)(F)F)c2)nc2sccn12 | 3.39 µM
COc1ccc(CC2S/C(=N/N=C/c3ccccc3O)NC2=O)cc1 (stereo unspecified) | 19.2 µM
CC1CCCCN1c1cc(C#N)c(C#N)cc1[N+](=O)[O-] (stereo unspecified) | 1.77 µM
Cc1ccccc1N1CCN(C(=O)c2ccc(Oc3ccc(C(F)(F)F)cn3)cc2)CC1 | 4.66 µM
Cc1cccc(N2CCN(C(=O)c3cc4n(n3)C(C(F)(F)F)CC(c3ccco3)N4)CC2)c1C (stereo unspecified) | 9.71 µM
O=c1c(Cl)c(NCc2ccccc2)cnn1C12CC3CC(CC(C3)C1)C2 | 3.19 µM

Compound | AC50
O=[N+]([O-])c1cccc(-c2csc(N/N=C/c3cccc(O)c3)n2)c1 | 3.7 µM
Cc1cc(C)cc(C(=O)Nc2nnc(SCC(=O)N3CCCc4ccccc43)s2)c1 | > 19.5 µM (inactive)
CCc1ccc([C@@H]2CC=C(C(=O)O)[C@H](c3ccc(Cl)cc3)N2S(=O)(=O)c2ccc(C)cc2)cc1 | 7.1 µM
C[C@]12CC[C@H](O)C[C@H]1CC[C@@H]1[C@@H]2C[C@@H](O)[C@]2(C)[C@@H](C3=CC(=O)OC3)CC[C@]12O | 0.654 µM
Cc1ccc(C(=O)NC(=C(Cl)Cl)S(=O)(=O)c2ccccc2)cc1 | 3.22 µM
COc1cccc(Nc2nc(-c3ccccc3)nc3ccccc23)c1 | 7.67 µM
O=c1cc(N2CCCCC2)c(-c2ccccc2)nn1Cc1ccccc1 | 12 µM
Cc1ccc(CNc2cnn(C34CC5CC(CC(C5)C3)C4)c(=O)c2Cl)cc1 | 2.44 µM
CSc1nnc(NC(=O)c2nc(S(=O)(=O)Cc3ccccc3F)ncc2Cl)s1 | 2.92 µM
COc1ccc2sc(-c3ccc(SC)cc3)c(-c3ccc(O)cc3)c2c1 | 2.42 µM
CCN1CCN(C(=S)Nc2sc(C)c(-c3ccccc3)c2C(=O)OC)CC1 | 4.72 µM
COC(=O)C1=C(c2cccc(C#N)c2)C[C@@H]2CC[C@H]1N2C(=O)NC1Cc2ccccc2C1 | > 19.5 µM (inactive)
C=CCn1c(SCC(=O)c2[nH]c(C)c(C(=O)OCC)c2C)nc2scc(-c3ccc(OC)c(OC)c3)c2c1=O | 3.99 µM
Cc1ccc([N+](=O)[O-])cc1N(CC(=O)Nc1ccc(S(=O)(=O)Nc2cccc(C(F)(F)F)c2)cc1)S(C)(=O)=O | 4.67 µM
COc1ccccc1/C=C/C1(C(=O)NC2CCCC2)CC(=O)N1c1ccc(F)cc1 (stereo unspecified) | 10.1 µM
O=c1cc(N2CCCCC2)c(-c2ccccc2)nn1Cc1cccc(Cl)c1 | 4.56 µM
N#Cc1c(NC(=O)Cn2c(=O)oc3ccccc32)oc(-c2ccccc2)c1-c1ccccc1 | 4.24 µM
CCOC(=O)c1ccc(-n2[nH]c(-c3ccccc3)cc2=O)cc1 | 7.96 µM
CC(C)(C)OC(=O)NCc1ccc(NC(=O)c2nc[nH]c2C(=O)NCCCCNC(=O)c2[nH]cnc2C(=O)Nc2ccc(CNC(=O)OC(C)(C)C)cc2)cc1 | 2.15 µM
Cc1cccc(C(=O)N/N=C/c2ccc(OC3CSC3)cc2)c1 | 2.73 µM
O=C(CN1CCN(c2ccc(O)cc2)CC1)Nc1ccc(SC(F)F)cc1 | 6.17 µM
O=C(O)c1cc(O)ccc1NC(=O)C(c1ccccc1)c1ccccc1 | > 19.5 µM (inactive)
COc1ccc(C(=O)NC(=S)Nc2ccccc2N2CCCCC2)cc1[N+](=O)[O-] | 0.574 µM
COc1cc(Br)cc(/C=C/c2ccc3cccc(O)c3n2)c1O | 3.91 µM
Cc1nn(-c2ccccc2)c2nc(N)c(C#N)c(-c3ccc(C(C)(C)C)cc3)c12 | 3.24 µM
O=Cc1ccc(Oc2cc(-c3ccccc3)nc(-c3ccccc3)n2)cc1 | 7.03 µM

Compound | AC50
O=C(N/N=C(\Cc1ncc[nH]1)c1ccccc1)c1ccncc1 | 3.85 µM
Cc1cc(SCC(=O)c2cccs2)n2nc(C)c(-c3ccc(Cl)cc3)c2n1 | 15.5 µM
O=C(Cc1ccccc1)Nc1cccc(NC(=O)c2ccccc2)c1 | 9.89 µM
CCC(=O)Nc1ccc(C(=O)Cn2ncc(Cl)c(Cl)c2=O)cc1 | 7.77 µM
Cc1ccn2c(NCc3ccccc3)c(-c3cccc(SC4CCCCC4)c3)nc2c1 | 4.45 µM
CCOc1cc(S(=O)(=O)Nc2ccc(CC)cc2)ccc1Cl | 7.02 µM
COc1cc(/C=C/C(=O)c2ccc(NS(=O)(=O)c3ccc(C)cc3)cc2)cc(OC)c1O | 4.11 µM
CCCCCCSc1ccc(-c2nc3cnccn3c2NCCCC)cc1 | 4.07 µM
CCN(CC)CCCNC(=O)c1cc(-c2ccccc2)c(N2CCCCC2)s1 | 3.29 µM
O=Nc1c(O)n(Cc2ccc(Cl)cc2Cl)c2ccccc12 | 7.05 µM
COc1cc(C#Cc2c(-c3cncn3C)n(C)c3ccc(-c4ccc(OC)nc4)cc23)cc(OC)c1 | 6.61 µM
CC(C)(C)OC(=O)N1CCC(NC(=O)c2[nH]cnc2C(=O)Nc2ccc(Cl)cc2)CC1 | 5.94 µM
Cc1cccc(NC(=O)c2nc[nH]c2C(=O)N[C@H](C)c2ccccc2)c1 | 7.13 µM
CCSc1nnc(NC(=O)NC(CC)(C(F)(F)F)C(F)(F)F)s1 | 12 µM
CCC(C)NCCOc1ccc(C(C)(C)c2ccccc2)cc1 (stereo unspecified) | 5.92 µM
Cc1cccc(-n2ncc(Cl)c(Cl)c2=O)c1 | 4.52 µM
O=C(COC(=O)/C=C/C(=O)OCC(=O)Nc1ccccc1F)Nc1ccccc1F | 9.61 µM
O=C(Cn1ncc(Cl)c(Cl)c1=O)NC(=O)NC1CCCCC1 | 2.23 µM
O=[N+]([O-])/C=C/c1cn(Cc2ccc(Cl)cc2)c2ccccc12 | 2.2 µM
Nc1ccc2c(c1)Oc1ccccc1C=C2 | > 19.5 µM (inactive)
CC1(C)C[C@H](O)[C@]2(CO)[C@H](O)C[C@]3(C)C(=CCC4[C@@]5(C)CC[C@H](O)C(C)(C)C5CC[C@]43C)[C@@H]2C1 (stereo partly specified) | 3.63 µM
C[C@@H]1O[C@@H](O[C@@H]2C=C3CC[C@@H]4C(CC[C@]5(C)[C@@H](c6ccc(=O)oc6)CC[C@]45O)[C@@]3(C)CC2)[C@H](O)[C@H](O)[C@H]1O (stereo partly specified) | < 0.16 µM
Clc1cccc(CN2CCc3c([nH]c4ccccc34)C2)c1Cl | 6.15 µM
CCC(O)(CC)C(=O)N/N=C/c1cc(Br)cc(Br)c1O | 19.8 µM
COc1ccc(-c2cn[nH]c2-c2ccc(OCc3ccccc3)cc2O)cc1 | 7.02 µM
COc1ccc(C(=O)Nc2ccc(Nc3ccccc3)cc2)cc1[N+](=O)[O-] | 4.19 µM

Compound | AC50
CC(=O)C12CC(C)=C(C)CC1CC1C3CCC4=CC(=O)CCC4(C)C3CCC12C (stereo unspecified) | 6.65 µM
C/C(=N\NC(=O)c1nnn(-c2nonc2N)c1CN1CCc2ccccc21)c1ccccc1O | 3.21 µM
CCCCCc1cc(=O)oc2c(C(CCN3CCCC(C)C3)c3ccc(OC)cc3)c(OC)cc(OC)c12 (stereo unspecified) | 5.33 µM
Oc1ccc(Nc2nc(-c3ccccc3O)nc3ccccc23)cc1 | 4.27 µM
O=C(COc1ccc(-c2ccccc2)cc1)N/N=C/c1cc(O)ccc1Br | 5.68 µM
CN1CCc2c(sc(NC(=O)c3ccc(S(=O)(=O)N4CCc5ccccc54)cc3)c2C(N)=O)C1 | 5.01 µM
COc1ccc2sc(-c3ccc(SC)cc3)c(C#CC(C)(C)O)c2c1 | 6.66 µM
COc1c(OC(C)=O)ccc(/C=C/c2ccc3cccc(OCc4ccccc4)c3n2)c1[N+](=O)[O-] | 3.37 µM
CCNc1nc(NCC)n2c(SC(C(=O)Nc3cc(Cl)cc(Cl)c3)c3ccccc3)nnc2n1 (stereo unspecified) | 3.52 µM
Cc1cccc(C(=O)Nc2ccc(C(=O)Nc3ccc(O)cc3)cc2)c1 | 5.08 µM
CC(/C=N/n1c(C2CCCCC2)n[nH]c1=S)=C\c1ccccc1 | 4.88 µM
Cc1cc(C)n(Cc2ccc(NC(=O)c3ccc(COc4ccccc4Br)cc3)cc2)n1 | 3.03 µM
O=C(Nc1ccccc1Cc1ccccc1)c1ccccc1NS(=O)(=O)c1ccc(Cl)s1 | 1.84 µM
Fc1ccc(CSc2nc3ccccc3[nH]2)c2ccccc12 | 5.51 µM
COc1cc(-c2nc(-c3ccc(NC(=O)c4ccc(Br)o4)cc3)no2)cc(OC)c1OC | 3.5 µM
CC(/C=C1\SC(=O)N(CC(=O)Nc2cccc(O)c2)C1=O)=C\c1ccccc1 | 13.6 µM
S=C(Nc1ccccc1Cl)N1CCCC(c2ccccc2)=N1 | 8.88 µM
c1ccc(-c2cc(-c3ccncc3)nc3ccc4ccccc4c23)cc1 | 3.61 µM
Cc1ccc2nc(NNC(=O)c3ccc(S(=O)(=O)N4CCc5ccccc5C4)cc3)sc2c1 | 3.91 µM
O=C1C=C(c2ccc(Cl)c(C(F)(F)F)c2)C[C@@H](c2ccc(Cl)cc2)C1 | 3.52 µM
CC(C)=CCc1c(O)cc2c(=O)c3ccc(O)cc3oc2c1O | 6.87 µM
O=C(Nc1ccc2c(c1)CCC2)c1cc(S(=O)(=O)Nc2ccc(F)cc2)c(Cl)cc1Cl | 5.38 µM
S=c1[nH]nc(-c2cc(-c3ccccc3)n[nH]2)n1/N=C/C(Br)=C/c1ccccc1 | 1.2 µM
